Data taken from patent publication US9695132B2, “Heteroaryl compounds and uses thereof” (Celgene CAR LLC, priority 2013, dated 2017).
Where two headings read alike, the source gives them in different places.

Experiments:
FGFR4-WT = FGFR4-WT (Homo sapiens (Human), UniProt P22455); experiment: Omnia assay for potency assessment against FGFR4 enzyme; format: biochemical
Description: A 10× stock solution of FGFR4-WT (PR4380C), (from Invitrogen, Carlsbad, Calif.) corresponding to method a in Table 7, was prepared as described below. Alternatively, a 10× stock solution of FGFR4-WT (F01-11G), (SignalChem, Richmond, BC) corresponding to method b in Table 7, was prepared as described below. A solution of 1.4×ATP (AS001A) and 5× Tyr-Sox conjugated peptide substrate (KNZ3101) were prepared in 1× kinase reaction buffer consisting of 20 mM Tris, pH 7.5, 5 mM MgCl2, 1 mM EGTA, 5 mM β-glycerophosphate, 5% glycerol (10× stock, KB002A) and 0.2 mM DTT (DS001A). […] The serially diluted compounds were prepared on a Tecan EVO100. A second addition of 10 μl of Tyr-Sox FGFR4 substrate was added to each well and the kinase reactions were started with the addition of 35 μL of 1.4×ATP. The reactions were monitored every 71 seconds for 240 minutes at λex360/λem485 in a Synergy plate reader from BioTek (Winooski, Vt.).

[1] = target: FGFR4 in MDA-MB-453 cells (Homo sapiens, UniProt P22455); experiment: Target occupancy assay with biotinylated covalent probe I-127; format: cell-based
Description: In order to assess free FGFR4 protein a biotinylated covalent probe was utilized. […] The reaction was incubated for 2 hr at room temperature. The samples and probe mixture were transferred to a FGFR4-coated MSD plate for 2 hr at room temperature. MSD signals were obtained with an anti-streptavidin Sulfo-tag (Meso Scale) antibody for 1 hr at room temperature. […] If a compound completely (100%) covalently modies FGFR4 no free FGFR4 should be available for covalent modification by the biotinylated probe and subsequent binding to streptavidin and detection.

pFGFR4 in Huh7 cells = pFGFR4 in Huh7 cells (Homo sapiens (Human), UniProt P22455); experiment: FGFR4 signaling, Meso Scale assay (MSD), Method B, Huh7
Description: Huh7 cells were grown in DMEM (Invitrogen, Carlsbad, Calif.) supplemented with 10% FBS (Invitrogen) and 1% Penicillin-Streptomycin (P/S, Lonza, Walkersville, Md.).
For the MSD and ELISA assays, total FGFR4 antibodies were obtained from R&D Systems (Minneapolis, Minn.) and used at 1:500. […] Phospho-FGFR antibodies were obtained from Cell Signaling (Danvers, Mass.) or R&D Systems and used at 1:1000. The phopho-FGFR antibody from Cell Signaling was used for immunoblotting, whereas the phopho-FGFR antibody from R&D was used for MSD and ELISA assays. Secondary antibodies were used at 1:10,000. The goat anti-mouse IgG IRDye 800CW antibody was obtained from LiCor Biosciences (Lincoln, Nebr.) and the goat anti-rabbit IgG Alexa Fluor 680 was obtained from Invitrogen. The anti-rabbit Sulfo-tag and anti-streptavidin Sulfo-tag antibodies was obtained from Meso Scale Discovery (Gaithersburg, Md.), and were used at 1:1000 and 1:5000, respectively.
After treatment, the cells were washed with cold PBS (Invitrogen), and were immediately lysed by freeze/thawing 3× in 32 μL of cold Cell Extraction Buffer (Invitrogen), which was supplemented with Complete Protease inhibitors (Roche) and PhosphoSTOP (Roche) phosphatase inhibitors.
MSD plates (Meso Scale Discovery) were coated with total FGFR-4 antibodies overnight at 4° C. A lysate (25 μL) was added to the MSD plate overnight at 4° C. The MSD signals were obtained by incubating with a phospho-FGFR antibody (R&D Systems) and an anti-rabbit sulfo-tag antibody (Meso Scale), for 2 hr at room temperature. […] The data was fitted using a sigmoidal curve analysis program (Graph Pad Prism version 5) with variable Hill slope to determine the EC50 values.

[2] = method b: [FGFR4-WT]=2.5 nM (SignalChem), [ATP]=250 uM, [Y10-Sox]=10 uM
[3] = method a: [FGFR4-WT]=10 nM (Invitrogen), [ATP]=300 uM, [Y10-Sox]=10 uM

FGFR4-WT, sequence (P22455 22-802): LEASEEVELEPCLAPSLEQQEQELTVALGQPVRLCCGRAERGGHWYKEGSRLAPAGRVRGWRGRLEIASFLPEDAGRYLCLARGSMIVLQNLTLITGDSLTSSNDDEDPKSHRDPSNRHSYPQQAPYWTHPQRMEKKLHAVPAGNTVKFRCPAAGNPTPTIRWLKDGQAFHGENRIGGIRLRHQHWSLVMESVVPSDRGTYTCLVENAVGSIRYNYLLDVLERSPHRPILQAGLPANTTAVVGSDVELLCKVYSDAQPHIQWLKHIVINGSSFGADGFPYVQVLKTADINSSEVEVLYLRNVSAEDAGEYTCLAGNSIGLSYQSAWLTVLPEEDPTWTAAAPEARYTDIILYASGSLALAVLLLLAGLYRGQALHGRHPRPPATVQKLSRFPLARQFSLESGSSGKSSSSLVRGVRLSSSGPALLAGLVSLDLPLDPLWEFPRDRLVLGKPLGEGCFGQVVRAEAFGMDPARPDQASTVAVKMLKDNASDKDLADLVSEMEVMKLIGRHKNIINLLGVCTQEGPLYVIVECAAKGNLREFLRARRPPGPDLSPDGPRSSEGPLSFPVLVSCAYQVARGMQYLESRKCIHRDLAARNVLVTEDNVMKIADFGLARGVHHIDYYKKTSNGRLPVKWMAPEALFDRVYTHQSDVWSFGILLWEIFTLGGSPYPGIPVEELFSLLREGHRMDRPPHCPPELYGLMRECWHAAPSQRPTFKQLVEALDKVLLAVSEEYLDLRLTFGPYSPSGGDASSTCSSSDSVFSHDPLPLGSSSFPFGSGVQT
pFGFR4 in Huh7 cells, sequence (P22455 22-802): as above
FGFR4 in MDA-MB-453 cells, sequence (P22455 22-802 limits assumed): as the sequence (P22455 22-802) above

| Compound | IC50 (FGFR4-WT; [2]) | EC50 [1] | IC50 (FGFR4-WT; [3]) | EC50 (pFGFR4 in Huh7 cells) | IC50 (FGFR4-WT) |
| --- | --- | --- | --- | --- | --- |
| CCC(=O)Nc1ccccc1Nc1ncc2c(n1)N(Cc1ccccc1)C(=O)N(c1c(Cl)c(OC)cc(OC)c1Cl)C2 [Compound I-236] | 101 to 500 nM | > 1000 nM |  |  |  |
| C=CC(=O)NC1CN(C2CCN(C)CC2)CC1Nc1ncc2c(n1)N(C)C(=O)N(c1c(Cl)c(OC)cc(OC)c1Cl)C2 (racemic) [Compound I-154] |  |  | 101 to 500 nM | > 1000 nM |  |
| C=CC(=O)Nc1ccccc1Nc1ncc2c(n1)N(C1COC1)C(=O)N(c1cc(OC)cc(OC)c1)C2 [Compound I-88] |  |  | < 100 nM | 101 to 500 nM |  |
| C=CC(=O)NC1COCC1Nc1ncc2c(n1)N(C)C(=O)N(c1cc(C(=O)Nc3cccc(C(C)(C)C#N)c3)ccc1Cl)C2 (centres unmarked) [Compound I-246] |  |  | 101 to 500 nM | 101 to 500 nM |  |
| C=CC(=O)Nc1ccccc1Nc1ncc2c(n1)N(CC(F)F)C(=O)N(c1cc(OC)cc(OC)c1Cl)C2 [Compound I-104] |  |  | < 100 nM | < 100 nM |  |
| C=CC(=O)NC1CN(c2ccncn2)CC1Nc1ncc2c(n1)N(C)C(=O)N(c1c(Cl)c(OC)cc(OC)c1Cl)C2 (centres unmarked) [Compound I-201] |  |  | < 100 nM | 101 to 500 nM |  |
| C=CC(=O)N[C@H]1CCCC[C@H]1Nc1ncc2c(n1)N(C)C(=O)N(c1c(F)c(OC)cc(OC)c1F)C2 [Compound I-143] |  |  | < 100 nM | 101 to 500 nM |  |
| C=CC(=O)Nc1ccccc1Nc1ncc2c(n1)N(Cc1cccc(F)c1)C(=O)N(c1c(Cl)c(OC)cc(OC)c1Cl)C2 [Compound I-12] | 101 to 500 nM | 101 to 500 nM |  |  |  |
| C=CC(=O)Nc1ccccc1Nc1ncc2c(n1)N(C)C(=O)N(c1c(Cl)cccc1Cl)C2 [Compound I-83] |  |  | 101 to 500 nM | 101 to 500 nM |  |
| C=CC(=O)Nc1ccccc1Nc1ncc2c(n1)N(Cc1cccc(C(N)=O)c1)C(=O)N(c1cc(OC)cc(OC)c1)C2 [Compound I-97] |  |  | < 100 nM | 101 to 500 nM |  |
| C=CC(=O)Nc1ccccc1Nc1ncc2c(n1)N(C1CCCN(C(=O)OC(C)(C)C)C1)C(=O)N(c1cc(OC)cc(OC)c1)C2 (centres unmarked) [Compound I-36] |  |  | < 100 nM | 101 to 500 nM |  |
| C=CC(=O)Nc1ccccc1Nc1ncc2c(n1)N(CCF)C(=O)N(c1cc(OC)cc(OC)c1Cl)C2 [Compound I-110] |  |  | < 100 nM | < 100 nM |  |
| C=CC(=O)Nc1cc(C)ccc1Nc1ncc2c(n1)N(C)C(=O)N(c1cc(OC)cc(OC)c1)C2 [Compound I-41] |  |  | < 100 nM | 101 to 500 nM |  |
| C=CC(=O)Nc1cc(N(C)CCOC)ccc1Nc1ncc2c(n1)N(C)C(=O)N(c1cc(OC)cc(OC)c1)C2 [Compound I-21] |  |  | < 100 nM | < 100 nM |  |
| C=CC(=O)NC1CN(c2ccn(C)n2)CC1Nc1ncc2c(n1)N(C)C(=O)N(c1c(Cl)c(OC)cc(OC)c1Cl)C2 (centres unmarked) [Compound I-204] |  |  | < 100 nM | < 100 nM |  |
| C=CC(=O)NC1COCC1Nc1ncc2c(n1)N(C)C(=O)N(c1c(F)c(OC)cc(OC)c1F)C2 (centres unmarked) [Compound I-198] |  |  | < 100 nM | < 100 nM |  |
| C=CC(=O)N[C@H]1COCC[C@H]1Nc1ncc2c(n1)N(C)C(=O)N(c1c(Cl)c(OC)cc(OC)c1Cl)C2 [Compound I-140] |  |  | 101 to 500 nM | 101 to 500 nM |  |
| C=CC(=O)NC1CCCCC1Nc1ncc2c(n1)N(Cc1ccn(C)c(=O)c1)C(=O)N(c1c(Cl)c(OC)cc(OC)c1Cl)C2 (centres unmarked) [Compound I-132] |  |  | < 100 nM | 101 to 500 nM |  |
| C=CC(=O)NC1CCCCC1Nc1ncc2c(n1)N(Cc1ccnc(N)c1)C(=O)N(c1c(Cl)c(OC)cc(OC)c1Cl)C2 (centres unmarked) [Compound I-133] |  |  | < 100 nM | < 100 nM |  |
| C=CC(=O)Nc1ccccc1Nc1ncc2c(n1)N(Cc1ccnc(N)c1)C(=O)N(c1cc(OC)cc(OC)c1)C2 [Compound I-87] |  |  | < 100 nM | < 100 nM |  |
| C=CC(=O)N[C@H]1CCCC[C@H]1Nc1ncc2cc(-c3c(Cl)c(OC)cc(OC)c3Cl)c(=O)n(C)c2n1 [Compound I-223] |  |  |  | < 100 nM | < 100 nM |
| C=CC(=O)Nc1cc(C(=O)NC2CCN(C)CC2)ccc1Nc1ncc2c(n1)N(C)C(=O)N(c1cc(OC)cc(OC)c1)C2 [Compound I-151] |  |  | < 100 nM | > 1000 nM |  |

| Compound | IC50 (FGFR4-WT; [2]) | EC50 [1] | IC50 (FGFR4-WT; [3]) | EC50 (pFGFR4 in Huh7 cells) | IC50 (FGFR4-WT) |
| --- | --- | --- | --- | --- | --- |
| C=CC(=O)Nc1ccccc1Nc1ncc2cc(-c3c(Cl)c(OC)cc(OC)c3Cl)c(=O)n(C)c2n1 [Compound I-244] |  |  | < 100 nM | < 100 nM |  |
| C=CC(=O)Nc1ccccc1Nc1ncc2c(n1)N(Cc1ccc(F)cc1)C(=O)N(c1c(Cl)c(OC)cc(OC)c1Cl)C2 [Compound I-25] | 101 to 500 nM |  |  | 101 to 500 nM |  |
| C=CC(=O)N[C@H]1CCCC[C@H]1Nc1ncc2c(n1)N(C)C(=O)N(c1c(Cl)c(OCC)cc(OCC)c1Cl)C2 [Compound I-219] |  |  | 101 to 500 nM | 501 to 999 nM |  |
| C=CC(=O)Nc1nn(C)cc1Nc1ncc2c(n1)N(C)C(=O)N(c1c(Cl)c(OC)cc(OC)c1Cl)C2 [Compound I-117] |  |  | < 100 nM | < 100 nM |  |
| C=CC(=O)Nc1cc(-c2nnnn2C)ccc1Nc1ncc2c(n1)N(C)C(=O)N(c1c(Cl)c(OC)cc(OC)c1Cl)C2 [Compound I-153] |  |  | < 100 nM | < 100 nM |  |
| C=CC(=O)Nc1ccccc1Nc1ncc2c(n1)NC(=O)N(c1cc(OC)cc(OC)c1)C2 [Compound I-125] |  |  | 101 to 500 nM | > 1000 nM |  |
| C=CC(=O)NC1COCC1Nc1ncc2c(n1)N(Cc1cc[nH]n1)C(=O)N(c1c(Cl)c(OC)cc(OC)c1Cl)C2 (centres unmarked) [Compound I-216] |  |  | < 100 nM | 101 to 500 nM |  |
| C=CC(=O)NC1CCCCC1Nc1ncc2c(n1)N(Cc1csc(C)n1)C(=O)N(c1c(Cl)c(OC)cc(OC)c1Cl)C2 (centres unmarked) [Compound I-137] |  |  | < 100 nM | 101 to 500 nM |  |
| C=CC(=O)Nc1ccccc1Nc1ncc2c(n1)N(C)C(=O)N(c1cc(OC)cc(OC)c1)C2 [Compound I-5] |  |  | < 100 nM | 101 to 500 nM |  |
| C=CC(=O)Nc1ccccc1Nc1ncc2c(n1)N(Cc1cscn1)C(=O)N(c1cc(OC)cc(OC)c1)C2 [Compound I-64] |  |  | < 100 nM | 101 to 500 nM |  |
| C=CC(=O)Nc1ccccc1Nc1ncc2c(n1)N(Cc1cn[nH]c1)C(=O)N(c1c(Cl)c(OC)cc(OC)c1Cl)C2 [Compound I-124] |  |  | < 100 nM | < 100 nM |  |
| C=CC(=O)Nc1cc(N(C)CCOC)ccc1Nc1ncc2c(n1)N(Cc1ccccc1)C(=O)N(c1cc(OC)cc(OC)c1)C2 [Compound I-13] | 101 to 500 nM |  |  | 101 to 500 nM |  |
| C=CC(=O)Nc1cc(C(F)(F)F)ccc1Nc1ncc2c(n1)N(Cc1ccccc1)C(=O)N(c1c(Cl)c(OC)cc(OC)c1Cl)C2 [Compound I-6] | 501 to 999 nM |  |  | 101 to 500 nM |  |
| C=CC(=O)Nc1ccccc1Nc1ncc2c(n1)N(Cc1cccc(N)c1)C(=O)N(c1c(Cl)c(OC)cc(OC)c1Cl)C2 [Compound I-26] | < 100 nM |  |  | < 100 nM |  |
| C=CC(=O)N[C@H]1CCCC[C@H]1Nc1ncc2c(n1)N(C)C(=O)N(c1cc(OC)c(OC)c(OC)c1)C2 [Compound I-220] |  |  | > 1000 nM | > 1000 nM |  |
| C=CC(=O)N[C@H]1COC[C@H]1Nc1ncc2c(n1)N(C)C(=O)N(c1c(Cl)c(OC)cc(OC)c1Cl)C2 [Compound I-186] |  |  | < 100 nM | < 100 nM |  |
| C=CC(=O)Nc1ccccc1Nc1ncc2c(n1)N(CC(F)F)C(=O)N(c1c(F)c(OC)cc(OC)c1F)C2 [Compound I-116] |  |  | < 100 nM | < 100 nM |  |
| C=CC(=O)NC1COCC1Nc1ncc2c(n1)N(CC)C(=O)N(c1c(Cl)c(OC)cc(OC)c1Cl)C2 (centres unmarked) [Compound I-217] |  |  | < 100 nM | < 100 nM |  |
| C=CC(=O)Nc1cc(F)ccc1Nc1ncc2cc(-c3c(Cl)c(OC)cc(OC)c3Cl)c(=O)n(C)c2n1 [Compound I-245] |  |  | < 100 nM | < 100 nM |  |
| C=CC(=O)NC1CCCCC1Nc1ncc2c(n1)N(Cc1cccnc1)C(=O)N(c1c(Cl)c(OC)cc(OC)c1Cl)C2 (racemic) [Compound I-35] |  | 101 to 500 nM |  |  |  |
| C=CC(=O)Nc1ccccc1Nc1ncc2c(n1)N(CC#N)C(=O)N(c1cc(OC)cc(OC)c1)C2 [Compound I-48] |  |  | < 100 nM | 101 to 500 nM |  |
| C=CC(=O)NC1CCCCC1Nc1ncc2c(n1)N(Cc1ccccc1)C(=O)N(c1c(Cl)c(OC)cc(OC)c1Cl)C2 (racemic) [Compound I-63] |  | 101 to 500 nM |  |  |  |
